Experimental data reported in ChEMBL document CHEMBL5247586, “Discovery of fusidic acid derivatives as novel STING inhibitors for treatment of sepsis” (Eur J Med Chem, 2022).
Activity calls are given as the source filed them. No cut-off for these calls is given here.

Legend:
[1] = Tmax in Sprague-Dawley rat administered intragastrically; type: ADME; settings: in vivo, po, route ig
Mus musculus [2] = assay: (§1) Protective activity against LPS induced sepsis in BALB/c mouse model of acute liver injury assessed as improvement in congested hepatic sinusoids at 1.25 to 5 mg/kg, IG administered once a day for 3 days followed by LPS stimulation for 12 hrs starting from 2 hrs post last dose by hematoxylin and eosin staining based analysis; type: functional, organism-based; settings: dose 1.25-5 mg/kg, time 86.0 hrs
RAW264.7 [3] = assay: Inhibition of STING protein expression in LPS-induced mouse RAW264.7 cells preincubated with compound for 2 hrs followed by LPS stimulation and measured after 6 hrs by Western blot analysis; type: functional, cell-based; settings: dose 0.5-2 µM, time 8.0 hrs
[4] = molecular target: T1, Serine/threonine-protein kinase TBK1 (Mus musculus) (UniProt Q9WUN2); assay: Inhibition of TBK1 phosphorylation in LPS-induced mouse RAW264.7 cells preincubated with compound for 2 hrs followed by LPS stimulation and measured after 6 hrs by Western blot analysis; type: cell-based; settings: dose 0.5-2 µM, time 8.0 hrs
T1 sequence (whole entry): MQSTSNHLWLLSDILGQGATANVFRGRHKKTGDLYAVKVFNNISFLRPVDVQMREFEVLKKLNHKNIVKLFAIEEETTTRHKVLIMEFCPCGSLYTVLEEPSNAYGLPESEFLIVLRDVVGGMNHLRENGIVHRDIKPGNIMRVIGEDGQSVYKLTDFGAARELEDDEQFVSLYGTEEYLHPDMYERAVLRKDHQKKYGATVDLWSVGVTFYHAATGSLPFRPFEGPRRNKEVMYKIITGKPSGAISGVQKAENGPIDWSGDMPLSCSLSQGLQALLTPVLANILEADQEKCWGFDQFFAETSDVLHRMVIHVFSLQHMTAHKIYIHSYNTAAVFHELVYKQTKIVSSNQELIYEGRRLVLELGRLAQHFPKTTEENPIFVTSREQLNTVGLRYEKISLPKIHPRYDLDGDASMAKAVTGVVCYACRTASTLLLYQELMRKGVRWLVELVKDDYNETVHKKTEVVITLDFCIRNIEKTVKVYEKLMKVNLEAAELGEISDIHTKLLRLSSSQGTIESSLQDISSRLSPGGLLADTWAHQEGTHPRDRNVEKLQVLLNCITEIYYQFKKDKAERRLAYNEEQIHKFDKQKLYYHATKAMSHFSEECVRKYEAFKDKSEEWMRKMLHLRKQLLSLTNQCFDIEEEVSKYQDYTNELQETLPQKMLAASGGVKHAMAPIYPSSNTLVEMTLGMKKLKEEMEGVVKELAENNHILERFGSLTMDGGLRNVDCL

RAW264.7 [5] = assay: Anti inflammatory activity in LPS-induced mouse RAW264.7 cells assessed as suppression of TNF-alpha levels at 0.5 to 2 uM preincubated with compound for 2 hrs followed by LPS stimulation for 6 hrs by ELISA method; type: functional, cell-based; settings: dose 0.5-2 µM, time 8.0 hrs
[6] = Cmax in Sprague-Dawley rat administered intragastrically; type: ADME; parameters: route ig; settings: in vivo, po
Mus musculus [7] = assay: as §1, with “reduction” for “improvement”, “inflammatory cell infiltration” for “congested hepatic sinusoids”; type: functional, organism-based; settings: dose 1.25-5 mg/kg, time 86.0 hrs
RAW264.7 [8] = assay: Anti inflammatory activity in LPS-induced mouse RAW264.7 cells assessed as inhibition of NO production at 2.5 uM preincubated with compound for 2 hrs followed by LPS stimulation and measured after 24 hrs by griess reagent based assay relative to control; type: functional; settings: time 26 hrs
Mus musculus [9] = assay: as §1, with “swollen hepatocytes” for “congested hepatic sinusoids”; type: functional, organism-based; settings: dose 1.25-5 mg/kg, time 86.0 hrs
[10] = molecular target: T2, Stimulator of interferon genes protein (Mus musculus) (UniProt Q3TBT3); assay: In vivo inhibition of STING in BALB/c mouse model of LPS induced sepsis assessed as inhibition of upregulation of phosphorylated IRF3 protein expression at 1.25 to 5 mg/kg, IG administered once a day for 3 days followed by LPS stimulation for 12 hrs starting from 2 hrs post last dose by Western blot analysis; type: functional, organism-based; settings: dose 1.25-5 mg/kg, time 86.0 hrs
T2 sequence (whole entry): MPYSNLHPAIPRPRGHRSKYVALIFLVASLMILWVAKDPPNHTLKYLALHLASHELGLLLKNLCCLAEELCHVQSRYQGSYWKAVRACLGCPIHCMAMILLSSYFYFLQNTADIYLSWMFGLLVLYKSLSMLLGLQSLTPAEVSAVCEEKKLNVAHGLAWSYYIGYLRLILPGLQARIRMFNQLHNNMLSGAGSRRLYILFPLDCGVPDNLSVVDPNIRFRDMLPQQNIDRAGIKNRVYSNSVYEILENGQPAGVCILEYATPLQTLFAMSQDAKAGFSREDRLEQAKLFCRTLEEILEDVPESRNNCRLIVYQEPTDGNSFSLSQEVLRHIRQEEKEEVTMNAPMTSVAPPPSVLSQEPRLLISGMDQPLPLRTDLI

Mus musculus [11] = assay: Antiinflammatory activity in BALB/c mouse model of LPS induced sepsis assessed as inhibition of IL-6 production at 1.25 to 5 mg/kg, IG administered once a day for 3 days followed by LPS stimulation for 12 hrs starting from 2 hrs post last dose by qRT-PCR analysis; type: functional, organism-based; settings: dose 1.25-5 mg/kg, time 86.0 hrs
Mus musculus [12] = assay: Antiinflammatory activity in BALB/c mouse model of LPS induced sepsis assessed as inhibition of TNF-alpha production at 1.25 to 5 mg/kg, IG administered once a day for 3 days followed by LPS stimulation for 12 hrs starting from 2 hrs post last dose by qRT-PCR analysis; type: functional, organism-based; settings: dose 1.25-5 mg/kg, time 86.0 hrs
RAW264.7 [13] = assay: Anti inflammatory activity in LPS-induced mouse RAW264.7 cells assessed as inhibition of NO production preincubated with compound for 2 hrs followed by LPS stimulation and measured after 24 hrs by griess reagent based assay; type: functional, cell-based
[14] = molecular target: T2, Stimulator of interferon genes protein (Mus musculus); assay: Binding affinity to STING in mouse RAW264.7 cells assessed as thermal stabilization at 40 to 61 degree C at 20 uM incubated for 8 hrs by cellular thermal shift assay; type: cell-based
[15] = molecular target: Transcription factor p65 (Mus musculus) (UniProt Q04207); assay: Inhibition of p65 phosphorylation in LPS-induced mouse RAW264.7 cells preincubated with compound for 2 hrs followed by LPS stimulation and measured after 6 hrs by Western blot analysis; type: cell-based; settings: dose 0.5-2 µM, time 8.0 hrs
Sequence of Transcription factor p65 (Mus musculus) (Q04207 whole entry): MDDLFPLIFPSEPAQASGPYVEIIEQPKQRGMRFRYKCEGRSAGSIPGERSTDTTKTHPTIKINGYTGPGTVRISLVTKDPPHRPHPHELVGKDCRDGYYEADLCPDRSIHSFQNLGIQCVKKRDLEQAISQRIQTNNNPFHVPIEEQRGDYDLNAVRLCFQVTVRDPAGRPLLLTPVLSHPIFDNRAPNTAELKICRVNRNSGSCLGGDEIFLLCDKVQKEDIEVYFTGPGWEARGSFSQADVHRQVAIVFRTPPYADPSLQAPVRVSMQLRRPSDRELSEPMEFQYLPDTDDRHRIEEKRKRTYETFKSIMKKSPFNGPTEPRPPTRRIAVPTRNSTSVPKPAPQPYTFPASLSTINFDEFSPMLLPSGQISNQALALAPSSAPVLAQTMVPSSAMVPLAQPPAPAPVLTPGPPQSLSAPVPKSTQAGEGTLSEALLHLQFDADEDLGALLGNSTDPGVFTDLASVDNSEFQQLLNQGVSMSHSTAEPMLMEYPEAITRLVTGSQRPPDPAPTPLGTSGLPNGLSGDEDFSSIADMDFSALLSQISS

Mus musculus [16] = assay: as §1, with “of disorderly arranged liver tissue” for “in congested hepatic sinusoids”; type: functional, organism-based; settings: dose 1.25-5 mg/kg, time 86.0 hrs
RAW264.7 [17] = assay: Anti inflammatory activity in LPS-induced mouse RAW264.7 cells assessed as suppression of IFN- beta levels at 0.5 to 2 uM preincubated with compound for 2 hrs followed by LPS stimulation for 6 hrs by ELISA method; type: functional, cell-based; settings: dose 0.5-2 µM, time 8.0 hrs
Mus musculus [18] = assay: Protective activity against LPS induced sepsis in BALB/c mouse model of acute liver injury assessed as reduction in ALT level in serum at 1.25 to 5 mg/kg, IG administered once a day for 3 days followed by LPS stimulation for 12 hrs starting from 2 hrs post last dose by ELISA; type: functional, organism-based; settings: dose 1.25-5 mg/kg, time 86.0 hrs
Mus musculus [19] = assay: as §1, with “reduction” for “improvement”, “necrotic hepatocytes” for “congested hepatic sinusoids”; type: functional, organism-based; settings: dose 1.25-5 mg/kg, time 86.0 hrs
Mus musculus [20] = assay: Protective activity against LPS induced sepsis in BALB/c mouse model of acute liver injury assessed as reduction in ALP level in serum at 1.25 to 5 mg/kg, IG administered once a day for 3 days followed by LPS stimulation for 12 hrs starting from 2 hrs post last dose by ELISA; type: functional, organism-based; settings: dose 1.25-5 mg/kg, time 86.0 hrs

C=CCONC(=O)CCSSCCC(=O)O[C@@H]1CC[C@@]2(C)[C@@H](CC[C@@]3(C)[C@H]2[C@H](O)C[C@H]2/C(=C(\CCC=C(C)C)C(=O)OCc4ccccc4)[C@@H](OC(C)=O)C[C@@]23C)[C@@H]1C
Tmax [1]: 1 h | Activity (Mus musculus [2]): Active | inhibition (RAW264.7 [3]): Dose-Dependent Effect | inhibition [4]: Dose-Dependent Effect | Activity (RAW264.7 [5]): Active | Cmax [6]: 66.5 ng/mL | Activity (Mus musculus [7]): Active | inhibition at 2.5 µM (RAW264.7 [8]): 69.3% | Activity (Mus musculus [9]): Active | inhibition [10]: Active | inhibition (Mus musculus [11]): Active | inhibition (Mus musculus [12]): Active | IC50 (RAW264.7 [13]): 1.15 µM | Activity [14]: Active | inhibition [15]: Dose-Dependent Effect | Activity (Mus musculus [16]): Active | Activity (RAW264.7 [17]): Active | Activity (Mus musculus [18]): Active | Activity (Mus musculus [19]): Active | Activity (Mus musculus [20]): Active
